{"source": "patent USRE36397E", "about": "“Inhibitors of poly(ADP-ribose) synthetase and use thereof to treat NMDA neurotoxicity” (The John Hopkins University, priority 1998, dated 1999)", "key": {"[1]": {"target": "PARS (poly(ADP-ribose) synthetase) (Rattus norvegicus, UniProt P27008)", "sequence (P27008 whole entry)": "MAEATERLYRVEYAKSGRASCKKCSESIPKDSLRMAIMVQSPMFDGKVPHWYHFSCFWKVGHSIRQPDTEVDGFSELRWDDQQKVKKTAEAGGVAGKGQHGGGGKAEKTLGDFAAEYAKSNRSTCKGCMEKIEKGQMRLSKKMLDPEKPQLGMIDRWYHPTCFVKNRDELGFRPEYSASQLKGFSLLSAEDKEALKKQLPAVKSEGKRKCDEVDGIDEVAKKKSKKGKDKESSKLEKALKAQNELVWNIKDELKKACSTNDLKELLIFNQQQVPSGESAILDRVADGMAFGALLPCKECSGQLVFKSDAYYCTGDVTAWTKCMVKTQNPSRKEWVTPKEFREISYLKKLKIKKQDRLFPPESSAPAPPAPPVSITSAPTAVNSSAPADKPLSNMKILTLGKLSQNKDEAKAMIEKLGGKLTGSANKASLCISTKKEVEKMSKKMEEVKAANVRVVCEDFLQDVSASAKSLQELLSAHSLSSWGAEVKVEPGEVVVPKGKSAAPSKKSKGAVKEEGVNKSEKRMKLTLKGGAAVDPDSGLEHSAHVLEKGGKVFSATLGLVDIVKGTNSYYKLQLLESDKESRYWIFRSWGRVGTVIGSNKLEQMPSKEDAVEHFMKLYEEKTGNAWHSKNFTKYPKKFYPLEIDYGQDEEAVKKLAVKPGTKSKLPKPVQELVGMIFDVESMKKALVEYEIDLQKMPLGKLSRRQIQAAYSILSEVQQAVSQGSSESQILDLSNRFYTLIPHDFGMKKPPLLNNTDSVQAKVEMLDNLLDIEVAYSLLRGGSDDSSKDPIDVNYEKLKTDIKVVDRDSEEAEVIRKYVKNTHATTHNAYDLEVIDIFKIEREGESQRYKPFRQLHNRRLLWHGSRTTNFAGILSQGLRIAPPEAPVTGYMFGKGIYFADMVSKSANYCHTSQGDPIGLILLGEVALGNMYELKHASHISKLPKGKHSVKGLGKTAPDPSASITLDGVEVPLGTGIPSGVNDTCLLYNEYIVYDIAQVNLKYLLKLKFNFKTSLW", "experiment": "PARS activity in rat brain nuclear extracts", "assay_type": "biochemical", "conditions": "for activity at 20 µM: read-out: PARS activity, % of basal levels", "description": "Inhibitors of poly(ADP-ribose) synthetase are compounds which compete for the substrate binding site of poly(ADP-ribose) synthetase or other sites on the enzyme, and include both reversible and irreversible inhibitors. The present invention contemplates the use of any physiologically acceptable inhibitor which inhibits poly(ADP-ribose) synthetase activity. The effectiveness of a compound, and its relative potency as a poly(ADP-ribose) synthetase inhibitor, can be tested and routinely determined by measuring inhibition of poly(ADP-ribose) synthetase activity. Poly(ADP-ribose) synthetase activity can be assayed according to the method of Schranfstatter, et al., J. Clin. Inves. 77, 1312 (1986).\nWhole brains from 1-day old rats were homogenized in 20% (w/v) buffer A [50 mM Tris-HCl (pH 7.4), 1 mM EDTA, 1 mM DTT, 50 mM NaCl, 0.25M sucrose, 0.2 mM phenylmethylsulfonyl fluoride, 1 μg/ml each of chymostatin, leupeptin, pepstatin and trypsin inhibitor]. The homogenate was centrifuged at 1000 g for 15 min. The pellet was washed with buffer A and centrifuged again. The washed pellet, termed nuclear fraction, was resuspended in buffer A. PARS activity was assayed according to I. U. Schranfstatter, et al., J. Clin. Inves. 77, 1312 (1986). Each 50 μl assay mixture contained 10 μg of the nuclear protein fraction and [adenylate-^32 P]"}, "[2]": {"test_system": "primary neuronal cultures from cortex", "experiment": "NMDA neurotoxicity in cerebral cortical cultures (trypan blue, % cell death)", "assay_type": "cell-based, Sprague-Dawley rats", "conditions": "for protection against NMDA neurotoxicity (in words): 10 μM 1,5-dihydroxyisoquinoline, 1 mM novobiocin, Table 1A and summary statements", "procedure": "To determine directly if PARS activation participates in NMDA neurotoxicity, we monitored neurotoxicity elicited by NMDA in cerebral cortical cultures in which NO synthase inhibitors provide marked protection (V. L. Dawson et al., Proc. Natl. Acad. Sci. U.S.A. 88, 6368 (1991); V. L. Dawson et al., J. Neurosci. 13, 2651 (1993)) (FIG. 2).\nTable 1A, PARS inhibitors were applied 30 min before and during NMDA application. In Table 1B, PARS inhibitors were applied after NMDA administration at the indicated times for 20 to 24 hr. Data are the means ±SEM (n≥8). Each data point represents 4,000-12,000 neurons counted. *p≤0.001 Student's t-test.\n(§1) Primary neuronal cultures from cortex were prepared from fetal Sprague-Dawley rats, gestation day 13-14. Mature neurons (grater than 21 days in culture) were used in all experiments.\n(§2) Neurotoxicity was determined by exposing the neurons to the various test solutions as previously described (Dawson, supra). […], SNP or SNAP were applied to the cells for 5 min, then the cells were washed and replaced with MEM, 21 mM glucose overnight in the incubator. Twenty to 24 hr after exposure to test solutions, the neurons were exposed to 0.4% trypan blue in CSS to stain the residue of non-viable cells and to assess toxicity. Viable and non-viable cells were counted. At least two separate experiments utilizing four separate wells were performed for each data point shown. Significant overall values were obtained by using a one-way, between groups analysis of variance. Specific comparisons on all possible pair combinations were made with the Student's t-test for independent means."}, "PARS": {"test_system": "PARS", "conditions": "cited from earlier work; for relative potency as PARS inhibitor (in words): family of benzamide and its derivatives"}, "pancreatic islet cells": {"test_system": "pancreatic islet cells", "conditions": "Kallman et al. 1992; cited from earlier work"}, "brain NOS": {"test_system": "brain NOS", "experiment": "Nitrite formation in human kidney 293 cells stably transfected with brain NOS cDNA", "assay_type": "cell-based", "conditions": "for nitrite formation: A23187 (10 μM), 2 hr, inhibitors 100 μM, n=3", "description": "(§3) To ascertain whether NO itself elicits neurotoxicity by activation of PARS, we administered the NO releasers SNP and S-nitroso-N-acetylpenicillamine (SNAP). […] In human kidney 293 cells stably transfected with the cDNA of brain."}, "[3]": {"test_system": "primary neuronal cultures from cortex", "experiment": "SNP and SNAP (NO releaser) neurotoxicity in cortical neuronal cultures", "assay_type": "cell-based, Sprague-Dawley rats", "conditions": "for inhibition at 100 µM: Rattus norvegicus, Primary cortical neuron", "procedure": "as §1, §2, §3"}, "[4]": {"experiment": "Direct interaction of benzamide with SNP/NO (HPLC recovery)", "assay_type": "physicochemical"}, "[5]": {"conditions": "Table 1A, 500 μM NMDA + 100 μM compound, 30 min before and during NMDA"}, "[6]": {"conditions": "Table 1A, 500 μM NMDA + 1 mM compound, 30 min before and during NMDA"}}, "note": "“Also recorded” adds a separate entry of the source. Like-named read-outs stand apart in the source and are kept apart here.", "data": [{"molecule": "Oc1cccc2c(O)nccc12", "note": "[1,5-dihydroxyisoquinoline]", "values": [{"measurement": "activity at 20 µM", "setting": "[1]; inhibitor 20 μM, NO-treated DNA, FIG. 1A", "value": "< 5", "unit": "%"}, {"measurement": "protection against NMDA neurotoxicity (in words)", "setting": "[2]", "value": "neuroprotective"}, {"measurement": "protection against NMDA neurotoxicity (in words)", "setting": "[2]; listed as 1,5-dihydroxy-isoquinoline", "value": "found to prevent neurotoxicity"}, {"measurement": "% Cell Death (± S.E.M.)", "setting": "[2]; Table 1A, 500 μM NMDA + 10 μM compound, 30 min before and during NMDA", "value": "39.0 ± 4.5", "unit": "%"}]}, {"molecule": "NC(=O)c1cccc(N)c1", "note": "[3-aminobenzamide]", "values": [{"measurement": "protection against NMDA neurotoxicity (in words)", "setting": "[2]", "value": "found to have the ability to prevent neurotoxicity; also recorded: somewhat less protection"}, {"measurement": "% Cell Death (± S.E.M.)", "setting": "[2]; [5]", "value": "45.9 ± 5.1", "unit": "%"}, {"measurement": "relative potency as PARS inhibitor (in words)", "setting": "PARS; relative to benzamide", "value": "about half as potent"}, {"measurement": "protection of pancreatic islet cells from macrophage cytotoxicity", "setting": "pancreatic islet cells", "value": "protects pancreatic islet cells from macrophage cytotoxicity"}]}, {"molecule": "Nc1ccc2c3c(cccc13)C(=O)NC2=O", "note": "[4-amino-1,8-naphthalimide]", "values": [{"measurement": "activity at 20 µM", "setting": "[1]", "value": "< 5", "unit": "%"}]}, {"molecule": "NC(=O)c1ccc(N)cc1", "note": "[4-aminobenzamide]", "values": [{"measurement": "% Cell Death (± S.E.M.)", "setting": "[2]; [5]", "value": "55.8 ± 7.6", "unit": "%"}, {"measurement": "fold weaker than benzamide as PARS inhibitor", "setting": "PARS; relative to benzamide", "value": "50-100 fold"}]}, {"molecule": "CNc1ccc2oc(C[C@H]3O[C@@]4(CC[C@H]3C)O[C@H]([C@H](C)C(=O)c3ccc[nH]3)[C@H](C)C[C@H]4C)nc2c1C(=O)O", "note": "[A23187]", "values": [{"measurement": "nitrite formation", "setting": "brain NOS", "value": "17.1±2.1", "unit": "μM nitrite"}]}, {"molecule": "O=C(O)c1ccccc1", "note": "[Benzoic acid]", "values": [{"measurement": "protection against NMDA neurotoxicity (in words)", "setting": "[2]", "value": "found not to have any activity"}, {"measurement": "protection against NMDA neurotoxicity (in words)", "setting": "[2]; listed as benzoic acid", "value": "inactive"}, {"measurement": "% Cell Death (± S.E.M.)", "setting": "[2]; [6]", "value": "58.9 ± 5.7", "unit": "%"}, {"measurement": "relative potency as PARS inhibitor (in words)", "setting": "PARS; relative to benzamide", "value": "inactive"}]}, {"molecule": "CN[C@H](CC(=O)O)C(=O)O", "note": "[NMDA, N-methyl- D-aspartate]", "values": [{"measurement": "% Cell Death (± S.E.M.)", "setting": "[2]; Table 1A, 500 μM NMDA alone", "value": "57.1 ± 4.7", "unit": "%"}, {"measurement": "% Cell Death (± S.E.M.)", "setting": "[2]; Table 1B, 500 μM NMDA alone", "value": "74.7 ± 7.8", "unit": "%"}]}, {"molecule": "[NH-]c1c[n+](N2CCOCC2)no1", "note": "[SIN-1, 3-morpholinosyndnonimine]", "values": [{"measurement": "effect on PARS activity by itself", "setting": "[1]; SNP 1 mM, SIN-1 1 mM or untreated DNA, alone", "value": "no effects on PARS"}]}, {"molecule": "NC(=O)c1ccccc1", "note": "[benzamide]", "values": [{"measurement": "protection against NMDA neurotoxicity (in words)", "setting": "[2]", "value": "found to prevent neurotoxicity"}, {"measurement": "protection against NMDA neurotoxicity (in words)", "setting": "[2]; listed as Benzamide", "value": "greatest degree of protection"}, {"measurement": "protection against NMDA neurotoxicity", "setting": "[2]; 50 μM", "value": "no significant protection was detected"}, {"measurement": "reduction of NMDA mediated neurotoxicity", "setting": "[2]; 100 μM, FIG. 2 legend", "value": "reduces"}, {"measurement": "greater protection than at 100 μM", "setting": "[2]; 500 μM versus 100 μM", "value": "about 30%"}, {"measurement": "inhibition at 100 µM", "setting": "[2]; Rattus norvegicus, Primary cortical neuron, read-out: protection against NMDA neurotoxicity", "value": "40 to 50", "unit": "%"}, {"measurement": "% Cell Death (± S.E.M.)", "setting": "[2]; Table 1A, 500 μM NMDA + 50 μM compound, 30 min before and during NMDA", "value": "60.1 ± 12.1", "unit": "%"}, {"measurement": "% Cell Death (± S.E.M.)", "setting": "[2]; [5]", "value": "39.5 ± 5.0", "unit": "%"}, {"measurement": "% Cell Death (± S.E.M.)", "setting": "[2]; Table 1A, 500 μM NMDA + 500 μM compound, 30 min before and during NMDA", "value": "21.9 ± 4.1", "unit": "%"}, {"measurement": "% Cell Death (± S.E.M.)", "setting": "[2]; Table 1B, 100 μM compound applied 5 min after 500 μM NMDA", "value": "35.6 ± 8.7", "unit": "%"}, {"measurement": "% Cell Death (± S.E.M.)", "setting": "[2]; Table 1B, 100 μM compound applied 30 min after 500 μM NMDA", "value": "40.4 ± 5.6", "unit": "%"}, {"measurement": "% Cell Death (± S.E.M.)", "setting": "[2]; Table 1B, 100 μM compound applied 1 hour after 500 μM NMDA", "value": 43.4, "unit": "%"}, {"measurement": "reduction of SNAP mediated neurotoxicity", "setting": "[3]; 100 μM, SNAP (300 μM), FIG. 2 legend", "value": "reduces"}, {"measurement": "reduction of SNP mediated neurotoxicity", "setting": "[3]; 100 μM, SNP (500 μM), FIG. 2 legend", "value": "reduces"}, {"measurement": "inhibition at 100 µM", "setting": "[3]; SNAP, read-out: reduction of SNAP neurotoxicity", "value": "45 to 50", "unit": "%"}, {"measurement": "inhibition at 100 µM", "setting": "[3]; SNP, read-out: reduction of SNP neurotoxicity", "value": "45 to 50", "unit": "%"}, {"measurement": "interaction with NO", "setting": "[4]", "value": "did not interact; also recorded: did not interact with NO"}, {"measurement": "recovery of benzamide after incubation with SNP", "setting": "[4]; benzamide 1 mM, SNP 1 mM, five days, 25° C., HPLC C18, 7200 min", "value": 100, "unit": "%"}, {"measurement": "IC50", "setting": "PARS; in vitro, Banasik et al. 1992, read-out: IC50 for inhibiting PARS in vitro", "value": 22, "unit": "µM"}]}, {"molecule": "CO[C@@H]1[C@@H](OC(N)=O)[C@@H](O)[C@H](Oc2ccc3c(O)c(NC(=O)c4ccc(O)c(CC=C(C)C)c4)c(=O)oc3c2C)OC1(C)C", "note": "[novobiocin]", "values": [{"measurement": "protection against NMDA neurotoxicity (in words)", "setting": "[2]", "value": "found not to have any activity in preventing neurotoxicity; also recorded: ineffective"}, {"measurement": "% Cell Death (± S.E.M.)", "setting": "[2]; [6]", "value": "62.4 ± 8.9", "unit": "%"}]}, {"molecule": "nitroarginine", "values": [{"measurement": "effect on NOS / stimulated nitrite levels", "setting": "brain NOS; 100 μM", "value": "abolished"}, {"measurement": "nitrite formation", "setting": "brain NOS", "value": "3.9±1.6", "unit": "μM nitrite"}]}]}
